Assay results: patent publication US6774235B2, “Trisubstituted 1,3,5-triazine derivatives” (Janssen Pharmaceutica N.V., priority 1998, dated 2004)

Experiments:
[1] = Cytotoxicity in mock-infected MT-4 cells (MTT); details: human, mock-infected MT-4 cells
Experimental: (§1) A rapid, sensitive and automated assay procedure was used for the in vitro evaluation of anti-HIV agents. An HIV-1 (wildtype IIIB) transformed T4-cell line, MT-4, which was previously shown (Koyanagi et al., Int. J Cancer, 36, 445-451, 1985) to be highly susceptible to and permissive for HIV infection, served as the target cell line. Inhibition of the HIV-induced cytopathic effect was used as the end point. […] The percent protection achieved by the compound in HIV-infected cells was calculated by the following formula: [formula]
(§2) whereby (ODT)HIV is the optical density measured with a given concentration of the test compound in HIV-infected cells; (ODC)HIV is the optical density measured for the control untreated HIV-infected cells; (ODC)MOCK is the optical density measured for the control untreated mock-infected cells; all optical density values were determined at 540 nm. […] The ratio of CC50 to IC50 was defined as the selectivity index (SI).

HIV-1 (wildtype IIIB) = experiment: microbe, parasite or virus in culture; type: cell-based; details: Human immunodeficiency virus 1, MT4; dose achieving 50% protection of HIV-1 (IIIB) infected MT-4 cells, MTT, OD 540 nm
Experimental: as §1, §2

Row | SMILES | CC50 [1] | IC50 (HIV-1 (wildtype IIIB))
1 | Cc1cc(Br)cc(Cl)c1Oc1nc(N)nc(Nc2ccc(C#N)cc2)n1 [Compound 33, 4-[[4-amino-6-(4-bromo-2-chloro-6-methylphenoxy)-1,3,5-triazin-2-yl]amino]benzonitrile] | > 10 µM | 0.002 µM
2 | CC(=O)c1cc(C)c(Oc2nc(N)nc(Nc3ccc(C#N)cc3)n2)c(C)c1 [Compound 35, 4-[[4-(4-acetyl-2,6-dimethylphenoxy)-6-amino-1,3,5-triazin-2-yl]amino]benzonitrile] | 32.1 µM | 0.001 µM
3 | N#Cc1ccc(Nc2nc(N)nc(Oc3c(Br)cc(Br)cc3Br)n2)cc1 [Compound 40, 4-[[4-amino-6-(2,4,6-tribromophenoxy)-1,3,5-triazin-2-yl]amino]benzonitrile] | > 10 µM | 0.005 µM
4 | Cc1cc([N+](=O)[O-])cc(C)c1Oc1nc(N)nc(Nc2ccc(C#N)cc2)n1 [Compound 41, 4-[[4-amino-6-(4-nitro-2,6-dimethylphenoxy)-1,3,5-triazin-2-yl]amino]benzonitrile] | 12.2 µM | 0.002 µM
5 | N#Cc1ccc(Nc2nc(N)nc(Sc3ccc(Cl)cc3Cl)n2)cc1 [Compound 54, 4-[[4-amino-6-[(2,4-dichlorophenyl)thio]-1,3,5-triazin-2-yl]amino]benzonitrile] | 57.3 µM | 0.004 µM
6 | Cc1cc(Br)cc(Cl)c1Nc1nc(N)nc(Nc2ccc(C#N)cc2)n1 [Compound 63, 4-[[4-amino-6-[(4-bromo-2-chloro-6-methylphenyl)amino]-1,3,5-triazin-2-yl]amino]-benzonitrile] | 48 µM | 0.003 µM
7 | Cc1cc(C)c(Nc2nc(N)nc(Nc3ccc(C#N)cc3)n2)c(Cl)c1 [Compound 65, 4-[[4-amino-6-[(2-chloro-4,6-dimethylphenyl)amino]-1,3,5-triazin-2-yl]amino]-benzonitrile] | 48.5 µM | 0.001 µM
8 | N#Cc1ccc(Nc2nc(N)nc(Nc3c(Cl)cc(Cl)cc3C(F)(F)F)n2)cc1 [Compound 71, 4-[[4-amino-6-[[2,4-dichloro-6-(trifluoromethyl)phenyl]amino]-1,3,5-triazin-2-yl]-amino]benzonitrile] | 8.2 µM | 0.01 µM
9 | CC(C)c1cc(Br)c(Nc2nc(N)nc(Nc3ccc(C#N)cc3)n2)c(Br)c1 [Compound 77, 4-[[4-amino-6-[[2,6-dibromo-4-(1-methylethyl)phenyl]amino]-1,3,5-triazin-2-yl]-amino]benzonitrile] | 47 µM | 0.003 µM
10 | N#Cc1ccc(Nc2nc(N)nc(Oc3cccc4[nH]ccc34)n2)cc1 [Compound 83] | 59.6 µM | 0.473 µM
11 | CC(=O)c1cc(C)c2c(c1Oc1nc(N)nc(Nc3ccc(C#N)cc3)n1)CCC2 [Compound 84, 4-[[4-[(5-acetyl-2,3-dihydro-7-methyl-1H-inden-4-yl)oxy]-6-amino-1,3,5-triazin-2-yl]amino]benzonitrile] | 54.1 µM | 0.001 µM
